Assay [1] deals with Serine/threonine-protein kinase Chk2 (Homo sapiens, UniProt O96017). The assay is classed as functional.
Assay [2] has as its target Fibroblast growth factor receptor 1 (Homo sapiens, UniProt P11362). The assay is classed as functional.
Assay [3] has as its target MAP/microtubule affinity-regulating kinase 3 (Homo sapiens, UniProt P27448). The assay is classed as functional.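 Note: MARK3 affinity measured as one member of a kinome panel.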
Assay [4] concerns the target Cyclin-dependent kinase 1 (Homo sapiens, UniProt P06493). The format is functional.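 Note: Kinome-wide panel profiling, with the target listed as panel member CDC2.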
The target of assay [5] is Casein kinase II subunit alpha (Homo sapiens, UniProt P68400). The format is functional.
For a further assay, the target named is Aurora kinase A (Homo sapiens, UniProt O14965). The assay is classed as functional.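 Note: value from the Navigating the Kinome kinase panel profiling, panel entry STK6.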
For assay [6], the system named is Streptococcus sp. 'group A'. Put plainly: growth inhibition of control SK(-) GAS strain, dose response, counter-screen for streptokinase expression inhibitor project, luminescence, kanamycin, BacTiterGlo, confirmation (AID 1900). The format is functional, organism-based.
Assay [7] can be described thus: C. albicans growth with fluconazole, confirmation, fluorescence, retest (AID 2467). The assay is classed as functional, cell-based.
In the next assay the target is T1, Streptokinase A (Streptococcus pyogenes serotype M1, UniProt P10520).
T1 sequence (P10520 whole entry): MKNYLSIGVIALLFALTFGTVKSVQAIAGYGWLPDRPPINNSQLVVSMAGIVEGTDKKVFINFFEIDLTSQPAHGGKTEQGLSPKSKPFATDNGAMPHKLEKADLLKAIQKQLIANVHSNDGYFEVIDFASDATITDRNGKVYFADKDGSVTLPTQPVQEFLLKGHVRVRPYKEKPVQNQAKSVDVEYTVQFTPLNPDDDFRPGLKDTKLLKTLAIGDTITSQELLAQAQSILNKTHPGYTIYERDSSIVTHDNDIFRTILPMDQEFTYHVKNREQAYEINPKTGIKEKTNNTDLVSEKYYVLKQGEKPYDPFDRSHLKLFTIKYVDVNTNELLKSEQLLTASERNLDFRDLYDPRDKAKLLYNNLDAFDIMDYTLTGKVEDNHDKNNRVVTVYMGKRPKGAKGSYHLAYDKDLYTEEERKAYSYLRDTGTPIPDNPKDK
Kind of assay: S. pyogenes streptokinase expression inhibitors, potency, dose response, plasminogen activation absorbance, OD405 (AID 1914).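 Note: secreted streptokinase activity via plasminogen activation per viability signal from cell pellet.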 The assay is classed as functional, Streptococcus pyogenes M1 GAS.

For a further assay, the system named is INS1. Put plainly: beta cell apoptosis inhibitors, cytokine rescue, dose response, luminescence, retest (AID 449756).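 Note: cell death triggered by IL-1 beta plus TNF-alpha plus IFN-gamma mixture; protective hits raise ATP signal compared with cytokine alone wells.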 The format is functional, cell-based. Conditions: Rattus norvegicus.
Assay [8] concerns the target T2, Orexin/Hypocretin receptor type 1 (Homo sapiens, UniProt O43613). Put plainly: Fluorescence-based cell-based high throughput dose response assay for antagonists of the orexin 1 receptor (OX1R; HCRTR1). [Related pubchem assays (depositor defined):AID434989, AID435008, AID463079, AID485270, AID492963, AID492964, AID492965, AID493232, AID504717, AID504718]. The assay is classed as functional.

A further assay addresses Paired box protein Pax-8 (Homo sapiens, UniProt Q06710). Kind of assay: inhibitors of PAX8-driven TPO luciferase reporter, dose response, RMG-I cells, cherry-pick (AID 687027).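 Note: luciferase reporter driven by Pax8 target thyroperoxidase promoter measured by SteadyGlo luminescence.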 The assay is classed as functional, cell-based.
Assay [9] is described as follows: Counterscreen for antagonists of the orexin 1 receptor (OX1R; HCRTR1): Fluorescence-based cell-based high throughput dose response assay to identify antagonists of the parental CHO cell line. [Related pubchem assays (depositor defined):AID434989, AID435008, AID463079, AID485270, AID492963, AID492964, AID492965, AID493232, AID504699, AID504701]. The format is functional.

A short description of assay [10]: HEp-2 cell cytotoxicity, dose response, cytotoxicity control for RSV inhibitor project, HTS (AID 2410). The assay is classed as functional. Conditions: human respiratory syncytial virus.
Assay [11] is described as follows: non-specific cell cytotoxicity, dose response, cytotoxicity control for PAX8 inhibitor project, plate reader, dry powder samples (AID 743021). The format is functional, cell-based.
For a further assay, the system named is CHO-K1. Kind of assay: Counterscreen for antagonists of the orexin 1 receptor (OX1R; HCRTR1): Homogeneous time resolved fluorescence (HTRF)-based cell-based dose response assay to identify antagonists of the parental CHO-K1 cell line. [Related pubchem assays (depositor defined):AID434989, AID435008, AID463079, AID485270, AID492963, AID492964, AID492965, AID493232, AID504699, AID504701]. The assay is classed as functional. As to conditions: Cricetulus griseus. For orientation: The purpose of a counterscreen is to sort out artefacts and off-target activity.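 Note: potency for inhibition of ATP-stimulated IP1 production as antagonists.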

For assay [12], the target named is T3, Orexin receptor type 2 (Homo sapiens, UniProt O43614). Put plainly: Counterscreen assay for antagonists of the orexin 1 receptor (OX1R; HCRTR1): Homogeneous Time Resolved Fluorescence (HTRF)-based cell-based dose response assay for antagonists of the orexin 2 receptor (OX2R; HCRTR2), run by assay provider. The assay is classed as functional.
Another assay relates to Streptococcus. Kind of assay: Group A Streptococcus viability loss, dose response, counter-screen for streptokinase expression inhibitor project, luminescence, BacTiterGlo (AID 1915).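 Note: potency for reduction of bacterial viability or growth.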 The format is functional, organism-based.
The next assay deals with T4, Protein RecA (Mycobacterium tuberculosis, UniProt P9WHJ3).
T4 sequence (P9WHJ3 whole entry): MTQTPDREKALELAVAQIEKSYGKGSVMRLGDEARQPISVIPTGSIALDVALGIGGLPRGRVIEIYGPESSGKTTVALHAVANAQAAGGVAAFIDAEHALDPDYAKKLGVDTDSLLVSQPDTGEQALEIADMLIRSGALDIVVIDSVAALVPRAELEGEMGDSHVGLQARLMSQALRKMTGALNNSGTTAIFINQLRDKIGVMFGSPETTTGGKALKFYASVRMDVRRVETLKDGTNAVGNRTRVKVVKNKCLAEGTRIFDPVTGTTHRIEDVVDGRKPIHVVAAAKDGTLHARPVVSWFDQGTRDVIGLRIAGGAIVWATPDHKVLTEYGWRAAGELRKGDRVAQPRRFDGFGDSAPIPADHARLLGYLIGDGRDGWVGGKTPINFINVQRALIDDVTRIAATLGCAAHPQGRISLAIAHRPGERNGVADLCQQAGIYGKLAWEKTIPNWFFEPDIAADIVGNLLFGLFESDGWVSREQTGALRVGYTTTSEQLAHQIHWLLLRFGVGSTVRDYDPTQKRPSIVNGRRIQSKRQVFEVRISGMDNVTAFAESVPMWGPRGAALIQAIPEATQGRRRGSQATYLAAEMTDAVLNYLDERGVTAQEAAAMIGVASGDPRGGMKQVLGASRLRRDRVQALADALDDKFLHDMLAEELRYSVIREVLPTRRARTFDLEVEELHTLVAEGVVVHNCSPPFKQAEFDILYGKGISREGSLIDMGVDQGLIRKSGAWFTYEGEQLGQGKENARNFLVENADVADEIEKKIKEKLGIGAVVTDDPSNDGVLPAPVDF
Put plainly: Fluorescence Cell-Free Homogeneous Dose Retest to Identify Inhibitors of RecA-Intein Splicing Activity. [Related pubchem assays (depositor defined):AID2097, AID2223, AID489010, AID492950]. The format is functional.

The target in assay [13] is T5, Replicative DNA helicase DnaB (Mycobacterium tuberculosis, UniProt P9WMR3).
T5 sequence (P9WMR3 whole entry): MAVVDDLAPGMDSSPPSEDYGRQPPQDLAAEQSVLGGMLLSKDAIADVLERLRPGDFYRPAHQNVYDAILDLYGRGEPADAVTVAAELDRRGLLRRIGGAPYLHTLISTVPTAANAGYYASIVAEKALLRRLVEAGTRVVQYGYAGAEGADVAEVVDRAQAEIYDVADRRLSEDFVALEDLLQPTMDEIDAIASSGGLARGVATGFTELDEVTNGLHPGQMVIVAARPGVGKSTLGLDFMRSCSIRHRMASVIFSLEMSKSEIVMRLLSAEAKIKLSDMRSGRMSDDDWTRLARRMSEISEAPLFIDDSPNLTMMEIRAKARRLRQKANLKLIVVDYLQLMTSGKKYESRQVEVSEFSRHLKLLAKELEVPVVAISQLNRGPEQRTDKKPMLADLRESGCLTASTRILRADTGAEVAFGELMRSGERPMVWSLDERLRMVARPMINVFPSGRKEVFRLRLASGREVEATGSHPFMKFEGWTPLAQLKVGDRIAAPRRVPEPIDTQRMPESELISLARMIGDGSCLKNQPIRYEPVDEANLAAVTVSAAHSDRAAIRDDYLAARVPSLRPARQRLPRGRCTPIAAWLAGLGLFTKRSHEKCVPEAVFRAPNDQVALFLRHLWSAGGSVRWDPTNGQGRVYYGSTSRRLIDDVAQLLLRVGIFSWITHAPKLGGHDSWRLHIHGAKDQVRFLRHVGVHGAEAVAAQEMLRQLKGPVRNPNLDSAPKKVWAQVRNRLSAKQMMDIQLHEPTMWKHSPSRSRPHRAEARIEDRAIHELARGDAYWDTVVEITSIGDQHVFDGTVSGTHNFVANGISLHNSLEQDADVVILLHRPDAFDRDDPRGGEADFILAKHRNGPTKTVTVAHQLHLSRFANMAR
Kind of assay: DnaB intein splicing inhibitors, dose response, biochemical, cell-free fluorescence (AID 449749). The assay is classed as functional.

In assay [14] the target is T3, Orexin receptor type 2. Kind of assay: Counterscreen assay for antagonists of the orexin 1 receptor (OX1R; HCRTR1): Fluorescence-based cell-based dose response assay for antagonists of the orexin 2 receptor (OX2R; HCRTR2), run by assay provider. The format is functional.
Assay [15] in a line: NIH-3T3 fibroblast cytotoxicity, dose response, cytotoxicity control, cell-based, fluorescence, Alamar Blue, secondary assay (AID 2327).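 Note: NIH-3T3 mouse fibroblasts cultured with fluconazole at 8 µg/mL.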 The assay is classed as functional. In general terms: Alamar Blue is a resazurin reagent that responds to reducing activity.
In assay [16] the target is T2, Orexin/Hypocretin receptor type 1. Put plainly: Homogeneous Time Resolved Fluorescence (HTRF)-based cell-based high throughput dose response assay for antagonists of the orexin 1 receptor (OX1R; HCRTR1). [Related pubchem assays (depositor defined):AID434989, AID435008, AID463079, AID485270, AID492963, AID492964, AID492965, AID493232, AID504717, AID504718]. The format is functional.

The structures appear in SMILES notation. Active and inactive are the calls of the source. Bounds are passed on as bounds.

Here are results for two molecules from ChEMBL document CHEMBL1201862, “PubChem BioAssay data set” (2004).

T2 sequence (O43613 whole entry): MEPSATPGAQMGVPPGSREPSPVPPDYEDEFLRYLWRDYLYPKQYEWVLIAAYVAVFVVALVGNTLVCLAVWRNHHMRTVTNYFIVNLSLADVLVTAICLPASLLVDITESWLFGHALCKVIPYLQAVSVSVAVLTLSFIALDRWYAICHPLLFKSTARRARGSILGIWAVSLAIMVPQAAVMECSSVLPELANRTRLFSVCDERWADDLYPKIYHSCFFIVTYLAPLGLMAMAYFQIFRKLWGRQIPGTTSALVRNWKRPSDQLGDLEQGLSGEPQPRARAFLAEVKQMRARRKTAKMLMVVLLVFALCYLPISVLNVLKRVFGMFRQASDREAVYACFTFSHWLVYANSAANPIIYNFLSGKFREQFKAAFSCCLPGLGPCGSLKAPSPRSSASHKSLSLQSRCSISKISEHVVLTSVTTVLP
T3 sequence (O43614 whole entry): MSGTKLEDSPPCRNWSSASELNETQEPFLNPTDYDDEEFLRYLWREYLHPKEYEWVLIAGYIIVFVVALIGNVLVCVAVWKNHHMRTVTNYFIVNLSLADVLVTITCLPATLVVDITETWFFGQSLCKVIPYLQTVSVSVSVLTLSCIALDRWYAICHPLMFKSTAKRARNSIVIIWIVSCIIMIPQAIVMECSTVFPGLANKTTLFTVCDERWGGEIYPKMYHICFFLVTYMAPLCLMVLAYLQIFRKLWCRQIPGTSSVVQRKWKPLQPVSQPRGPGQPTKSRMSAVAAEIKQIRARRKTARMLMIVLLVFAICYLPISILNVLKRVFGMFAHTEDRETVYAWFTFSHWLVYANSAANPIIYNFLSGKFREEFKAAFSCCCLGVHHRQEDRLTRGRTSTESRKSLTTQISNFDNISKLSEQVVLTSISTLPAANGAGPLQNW
Sequence of Paired box protein Pax-8 (Q06710 whole entry): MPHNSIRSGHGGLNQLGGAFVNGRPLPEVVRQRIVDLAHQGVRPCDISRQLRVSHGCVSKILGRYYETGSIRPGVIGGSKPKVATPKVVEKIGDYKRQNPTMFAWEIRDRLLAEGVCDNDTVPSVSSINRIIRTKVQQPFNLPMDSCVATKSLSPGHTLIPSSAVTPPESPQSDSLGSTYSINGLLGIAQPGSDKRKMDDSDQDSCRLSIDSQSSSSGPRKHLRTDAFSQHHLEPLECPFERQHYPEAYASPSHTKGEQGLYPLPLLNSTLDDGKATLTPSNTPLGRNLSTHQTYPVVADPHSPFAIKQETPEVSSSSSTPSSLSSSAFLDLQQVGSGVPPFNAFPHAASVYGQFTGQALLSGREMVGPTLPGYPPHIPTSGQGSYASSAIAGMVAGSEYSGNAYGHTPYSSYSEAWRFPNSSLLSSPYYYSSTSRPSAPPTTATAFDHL
Sequence of Aurora kinase A (O14965 whole entry): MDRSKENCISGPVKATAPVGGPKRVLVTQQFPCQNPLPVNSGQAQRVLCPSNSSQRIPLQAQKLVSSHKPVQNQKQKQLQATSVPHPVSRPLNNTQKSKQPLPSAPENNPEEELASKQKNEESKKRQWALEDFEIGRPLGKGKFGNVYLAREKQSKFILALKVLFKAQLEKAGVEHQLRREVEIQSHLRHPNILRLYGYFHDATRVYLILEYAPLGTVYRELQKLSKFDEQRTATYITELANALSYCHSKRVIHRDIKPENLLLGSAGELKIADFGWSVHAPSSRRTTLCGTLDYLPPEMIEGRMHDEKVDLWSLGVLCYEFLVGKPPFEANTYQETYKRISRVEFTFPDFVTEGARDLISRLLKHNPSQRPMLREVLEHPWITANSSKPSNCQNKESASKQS
Sequence of Casein kinase II subunit alpha (P68400 whole entry): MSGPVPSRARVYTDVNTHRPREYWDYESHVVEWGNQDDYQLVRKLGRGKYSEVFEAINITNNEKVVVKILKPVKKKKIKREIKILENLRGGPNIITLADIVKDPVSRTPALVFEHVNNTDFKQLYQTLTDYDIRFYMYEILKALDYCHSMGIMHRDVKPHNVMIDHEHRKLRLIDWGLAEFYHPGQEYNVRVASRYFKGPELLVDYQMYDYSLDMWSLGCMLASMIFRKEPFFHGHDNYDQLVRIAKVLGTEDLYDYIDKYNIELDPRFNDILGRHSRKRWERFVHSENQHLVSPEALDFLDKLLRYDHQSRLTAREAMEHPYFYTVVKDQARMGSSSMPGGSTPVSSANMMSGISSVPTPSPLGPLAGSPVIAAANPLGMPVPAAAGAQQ
Sequence of Serine/threonine-protein kinase Chk2 (O96017 whole entry): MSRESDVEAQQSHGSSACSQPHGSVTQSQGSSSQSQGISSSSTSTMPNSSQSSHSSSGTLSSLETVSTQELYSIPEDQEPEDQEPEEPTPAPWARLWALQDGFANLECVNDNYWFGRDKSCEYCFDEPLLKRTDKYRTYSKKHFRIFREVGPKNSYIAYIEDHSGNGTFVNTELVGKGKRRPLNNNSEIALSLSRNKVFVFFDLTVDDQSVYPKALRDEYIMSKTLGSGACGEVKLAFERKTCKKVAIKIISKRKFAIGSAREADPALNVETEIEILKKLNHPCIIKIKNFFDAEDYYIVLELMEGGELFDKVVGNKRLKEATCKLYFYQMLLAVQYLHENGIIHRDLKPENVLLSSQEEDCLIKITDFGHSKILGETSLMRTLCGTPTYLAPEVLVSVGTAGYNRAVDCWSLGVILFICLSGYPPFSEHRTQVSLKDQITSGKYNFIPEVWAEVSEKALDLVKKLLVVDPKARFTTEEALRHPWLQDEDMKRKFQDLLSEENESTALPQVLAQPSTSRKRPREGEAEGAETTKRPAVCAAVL
Sequence of MAP/microtubule affinity-regulating kinase 3 (P27448 whole entry): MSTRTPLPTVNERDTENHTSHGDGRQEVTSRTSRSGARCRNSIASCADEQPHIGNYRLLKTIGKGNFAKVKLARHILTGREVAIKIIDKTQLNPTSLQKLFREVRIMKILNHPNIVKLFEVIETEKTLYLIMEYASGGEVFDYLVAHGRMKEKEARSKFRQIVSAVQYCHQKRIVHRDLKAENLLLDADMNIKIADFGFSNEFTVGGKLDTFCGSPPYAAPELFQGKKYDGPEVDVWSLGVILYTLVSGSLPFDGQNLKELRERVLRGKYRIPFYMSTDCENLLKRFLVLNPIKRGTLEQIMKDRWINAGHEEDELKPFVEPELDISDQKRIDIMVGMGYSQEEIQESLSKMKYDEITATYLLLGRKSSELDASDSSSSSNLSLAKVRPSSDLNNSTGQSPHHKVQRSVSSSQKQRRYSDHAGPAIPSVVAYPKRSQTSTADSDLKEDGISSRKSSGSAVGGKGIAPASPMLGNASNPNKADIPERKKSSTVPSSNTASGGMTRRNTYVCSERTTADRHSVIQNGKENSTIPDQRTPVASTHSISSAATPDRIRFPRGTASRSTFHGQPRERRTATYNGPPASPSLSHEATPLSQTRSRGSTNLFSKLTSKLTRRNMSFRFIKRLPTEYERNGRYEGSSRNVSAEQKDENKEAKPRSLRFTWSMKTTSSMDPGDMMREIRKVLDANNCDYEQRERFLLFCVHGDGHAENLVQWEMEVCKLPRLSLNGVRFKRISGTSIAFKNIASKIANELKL
Sequence of Fibroblast growth factor receptor 1 (P11362 whole entry): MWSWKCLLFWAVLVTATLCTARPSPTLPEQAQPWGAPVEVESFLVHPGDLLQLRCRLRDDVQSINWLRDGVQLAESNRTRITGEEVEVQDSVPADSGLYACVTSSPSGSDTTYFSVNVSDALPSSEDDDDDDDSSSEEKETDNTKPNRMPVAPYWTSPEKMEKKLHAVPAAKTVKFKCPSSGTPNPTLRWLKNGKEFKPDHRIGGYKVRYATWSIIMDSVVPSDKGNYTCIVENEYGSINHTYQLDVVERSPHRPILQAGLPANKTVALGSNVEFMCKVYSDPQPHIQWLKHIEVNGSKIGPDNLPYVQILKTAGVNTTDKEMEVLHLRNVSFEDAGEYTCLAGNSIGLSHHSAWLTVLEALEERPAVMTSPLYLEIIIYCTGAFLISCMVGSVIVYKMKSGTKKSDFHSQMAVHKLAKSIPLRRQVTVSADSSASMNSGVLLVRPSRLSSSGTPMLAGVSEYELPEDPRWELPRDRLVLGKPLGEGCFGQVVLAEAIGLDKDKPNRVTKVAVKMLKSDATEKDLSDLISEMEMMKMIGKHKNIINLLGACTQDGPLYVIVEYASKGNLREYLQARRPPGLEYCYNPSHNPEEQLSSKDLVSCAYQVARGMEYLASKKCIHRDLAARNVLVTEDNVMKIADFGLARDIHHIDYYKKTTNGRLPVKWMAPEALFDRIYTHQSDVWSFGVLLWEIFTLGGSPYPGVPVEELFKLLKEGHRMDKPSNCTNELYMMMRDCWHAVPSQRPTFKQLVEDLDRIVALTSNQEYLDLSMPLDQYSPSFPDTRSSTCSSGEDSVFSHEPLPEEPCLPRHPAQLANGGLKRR
Sequence of Cyclin-dependent kinase 1 (P06493 whole entry): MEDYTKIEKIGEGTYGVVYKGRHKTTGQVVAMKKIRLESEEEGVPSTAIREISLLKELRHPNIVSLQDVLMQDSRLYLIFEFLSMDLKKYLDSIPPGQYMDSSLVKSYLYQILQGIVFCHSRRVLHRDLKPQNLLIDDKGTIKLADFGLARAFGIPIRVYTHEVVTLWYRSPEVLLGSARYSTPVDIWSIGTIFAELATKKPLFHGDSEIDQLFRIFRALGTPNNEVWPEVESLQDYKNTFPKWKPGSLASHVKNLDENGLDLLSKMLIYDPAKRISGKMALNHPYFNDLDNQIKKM

Consider `Fc1ccc2c(c1)-c1n[nH]cc1CS2`, for which the inhibition constant (Ki) – broadly, the dissociation constant of the complex between target and ligand, obtained from inhibition or displacement – in assay [1] was 6.31 µM (active); in [2], 10 µM (active); in assay [3] it was 12.6 µM (active); in [4], 15.8 µM (active); in assay [5] it was 6.31 µM (active); on Aurora kinase A, 5.01 µM (active).
As for `COc1cccc(/C=N/Nc2cc(C)nc(-c3ccccc3O)n2)c1O`, the concentration giving a half-maximal response (EC50) (usually the concentration giving half of the maximal effect) was 0.876 µM (active) in [6]; 0.294 µM (active) in assay [7]; > 150 µM (not active) at Streptokinase A; 6.64 µM (active) in the assay with Streptococcus; 357 µM (inconclusive) on Protein RecA; 5.22 µM (inconclusive) in assay [15]. The AC50 (commonly the midpoint of the concentration-response curve, whichever way the signal moves) in the assay with INS1 was 1.93 µM (active); at Paired box protein Pax-8, 5.5 µM (active); in assay [11] it was 16.2 µM (active); in assay [13] it was 30.1 µM (active). Besides, the half-inhibitory concentration (IC50) (as a rule, the midpoint of a concentration-inhibition curve) in [8] is 3.31 µM (active); in assay [9], > 49.8 µM (inactive); in the assay on CHO-K1, > 66.2 µM (inactive); on Orexin receptor type 2 [12], > 50 µM (inactive); at Orexin receptor type 2 [14], 11.9 µM (inactive); in [16], 2.91 µM (active). The CC50 (in general, the concentration giving 50% cytotoxicity) in assay [10] was 5.1 µM (active).
